Measurements reported in the supplement of paper PMC11061612.

Legend:
Experiment in all cases: combination Emax (second highest fraction inhibited in the dose matrix, 72 h); higher = more inhibition; extreme values may be limits of the assay
ACHN (Kidney Carcinoma) = system: ACHN (Kidney Carcinoma)
Summary of the method: (§1)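 After 24 hours at 37°C and 5% CO2 in 1536-well plates, cells in DMEM/F12 or RPMI plus 10% FBS received two-drug dose matrices for 72 hours. Viability came from CellTiter-Glo 2.0 luminescence and was scaled as inhibition, anchored at 0 by vehicle wells and at 1 by blank wells. Combination Emax is taken as the second-highest inhibition in the matrix, and Bliss excess as the observed combination effect less EA + EB − EA·EB, with EA and EB the single-agent effects.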

[1] = system: KYSE-450 (Esophageal Squamous Cell Carcinoma)
Summary of the method: as §1

[2] = system: MIA-PaCa-2 (Pancreatic Carcinoma)
Summary of the method: as §1

[3] = system: C-4-I (Cervical Carcinoma)
Summary of the method: as §1

[4] = system: OSC-20 (Oral Cavity Carcinoma)
Summary of the method: as §1

NB69 (Neuroblastoma) = system: NB69 (Neuroblastoma)
Summary of the method: as §1

[5] = system: NCI-H727 (Other Solid Carcinomas)
Summary of the method: as §1

[6] = system: VA-ES-BJ (Other Solid Carcinomas)
Summary of the method: as §1

[7] = system: NCI-H1915 (Non-Small Cell Lung Carcinoma)
Summary of the method: as §1

[8] = system: HGC-27 (Gastric Carcinoma)
Summary of the method: as §1

[9] = system: BT-549 (Breast Carcinoma)
Summary of the method: as §1

[10] = system: OE19 (Esophageal Adenocarcinoma)
Summary of the method: as §1

[11] = system: SW13 (Other Solid Carcinomas)
Summary of the method: as §1

[12] = system: TE-1 (Esophageal Squamous Cell Carcinoma)
Summary of the method: as §1

[13] = system: KMOE-2 (Acute Myeloid Leukemia)
Summary of the method: as §1

[14] = system: RF-48 (B-Cell Non-Hodgkin's Lymphoma)
Summary of the method: as §1

[15] = system: MLMA (Other Blood Carcinomas)
Summary of the method: as §1

[16] = system: AMO-1 (Plasma Cell Myeloma)
Summary of the method: as §1

[17] = system: LU-65 (Non-Small Cell Lung Carcinoma)
Summary of the method: as §1

[18] = system: Caov-4 (Ovarian Carcinoma)
Summary of the method: as §1

Row | Compound | combination Emax (ACHN (Kidney Carcinoma)) | combination Emax [1] | combination Emax [2] | combination Emax [3] | combination Emax [4] | combination Emax (NB69 (Neuroblastoma)) | combination Emax [5] | combination Emax [6] | combination Emax [7] | combination Emax [8] | combination Emax [9] | combination Emax [10] | combination Emax [11] | combination Emax [12] | combination Emax [13] | combination Emax [14] | combination Emax [15] | combination Emax [16] | combination Emax [17] | combination Emax [18]
1 | NC1(C(=O)N[C@@H](CCO)c2ccc(Cl)cc2)CCN(c2ncnc3[nH]ccc23)CC1 [Capivasertib] + Cn1cnc2c(F)c(Nc3ccc(Br)cc3Cl)c(C(=O)NOCCO)cc21 [Selumetinib] (first compound max 10 µM, 7x7, partner max 10 µM) | 0.49 | 0.547 | 0.643 | 0.537 | 0.451 | 0.903 | 0.729 | 0.347 | 0.791 | 0.841 | 0.41 | 0.573 | 0.65 | 0.49 | 1 | 0.456 | 0.513 | 0.801 | 0.729 | 0.613
2 | COc1cccc(OCCCN)c1-c1cc(Nc2cnc(C#N)cn2)n[nH]1 [Prexasertib] + CN(C)CCCOc1ccc(-c2ccc3ncc4c(c3c2)n(C2CCOCC2)c(=O)n4C)cn1 [AZD0156] (first compound max 1 µM, 7x7, partner max 1 µM) | 0.926 | 0.615 | 0.754 | 0.915 | 0.584 | 0.915 | 0.717 | 0.766 | 0.588 | 0.858 | 0.707 | 0.889 | 0.322 | 0.71 | 0.945 | 0.744 | 0.957 | 0.98 | 0.761 | 0.964
3 | NC1(C(=O)N[C@@H](CCO)c2ccc(Cl)cc2)CCN(c2ncnc3[nH]ccc23)CC1 [Capivasertib] + CC(C)n1c(=O)n(C)c2cnc3cc(F)c(-c4ccc(OCCCN5CCCCC5)nc4)cc3c21 [AZD1390] (first compound max 10 µM, 7x7, partner max 0.3 µM) | 0.185 | 0.306 | 0.188 | 0.237 | 0.256 | 0.341 | 0.35 | 0.307 | 0.287 | 0.852 | 0.353 | 0.346 | 0.35 | 0.153 | 0.33 | 0.44 | 0.452 | 0.633 | 0.401 | 0.245
4 | Cn1cnc2c(F)c(Nc3ccc(Br)cc3Cl)c(C(=O)NOCCO)cc21 [Selumetinib] + C=CCn1c(=O)c2cnc(Nc3ccc(N4CCN(C)CC4)cc3)nc2n1-c1cccc(C(C)(C)O)n1 [AZD1775] (first compound max 10 µM, partner max 1 µM) | 0.863 | 0.499 | 0.767 | 0.929 | 0.27 | 0.944 | 0.614 | 0.468 | 0.846 | 0.536 | 0.715 | 0.28 | 0.361 | 0.638 | 1 | 0.489 | 0.769 | 0.917 | 0.908 | 0.764
5 | Cc1c2c(nn1C)CSCc1cc(n(C)n1)CSc1cc(c3ccccc3c1)OCCCc1c(C(=O)O)n(C)c3c-2c(Cl)ccc13 [AZD5991] + C[C@@H](Nc1cc(F)cc(F)c1)c1cc(C(=O)N(C)C)cc2c(=O)cc(N3CCOCC3)oc12 [AZD8186] (first compound max 1 µM, 7x7, partner max 3 µM) | 0.342 | 0.234 | 0.336 | 0.985 | 0.237 | 0.894 | 0.274 | 0.322 | 0.184 | 0.691 | 0.476 | 0.49 | 0.947 | 0.589 | 0.644 | 0.365 | 0.532 | 1 | 0.449 | 0.507
6 | Cc1c2c(nn1C)CSCc1cc(n(C)n1)CSc1cc(c3ccccc3c1)OCCCc1c(C(=O)O)n(C)c3c-2c(Cl)ccc13 [AZD5991] + Cn1cnc2c(F)c(Nc3ccc(Br)cc3Cl)c(C(=O)NOCCO)cc21 [Selumetinib] (first compound max 1 µM, 7x7, partner max 3 µM) | 0.4 | 0.331 | 0.623 | 1 | 0.276 | 0.982 | 0.65 | 0.184 | 0.568 | 0.306 | 0.258 | 0.49 | 0.828 | 0.655 | 1 | 0.21 | 0.393 | 1 | 0.716 | 0.856
7 | CC1(C)CCC(CN2CCN(c3ccc(C(=O)NS(=O)(=O)c4ccc(NCC5CCOCC5)c([N+](=O)[O-])c4)c(Oc4cnc5[nH]ccc5c4)c3)CC2)=C(c2ccc(Cl)cc2)C1 [Venetoclax] + C[C@@H]1COCCN1C2=NC(=NC(=C2)C3(CC3)[S@](=N)(=O)C)C4=C5C=CNC5=NC=C4 [AZD6738] (first compound max 1 µM, 7x7, partner max 10 µM) | 0.937 | 0.519 | 0.666 | 0.906 | 0.425 | 0.884 | 0.616 | 0.813 | 0.538 | 0.8 | 0.52 | 0.673 | 0.472 | 0.543 | 0.73 | 0.562 | 0.909 | 0.904 | 0.652 | 0.751
